Measured values published in PubChem BioAssay (NCI).
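Interpolation was linear, between the two tested concentrations surrounding the appropriate level; five concentrations were tested over 48 hours in 96-well plates. GI50 = concentration required for 50% inhibition of growth. TGI is the concentration that stops growth completely.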

How the values were obtained:
Assay in all cases: growth of human tumour cells (NCI), 48 h
[1] = test system: 786-0 renal
[2] = test system: A498 renal
[3] = test system: A549 NSCLC
[4] = test system: ACHN renal
[5] = test system: BT-549 breast
[6] = test system: CCRF-CEM leukemia
[7] = test system: COLO 205 colon
[8] = test system: DU-145 prostate
[9] = test system: HCC-2998 colon
[10] = test system: HCT-116 colon
[11] = test system: HCT-15 colon
[12] = test system: HL-60(TB) leukemia
[13] = test system: HOP-62 NSCLC
[14] = test system: HOP-92 NSCLC
[15] = test system: HS 578T breast
[16] = test system: HT29 colon
[17] = test system: IGROV1 ovarian
[18] = test system: K-562 leukemia
[19] = test system: KM12 colon
[20] = test system: LOX IMVI melanoma
[21] = test system: M14 melanoma
[22] = test system: MALME-3M melanoma
[23] = test system: MCF7 breast
[24] = test system: MDA-MB-231 breast
[25] = test system: MDA-MB-435
[26] = test system: MOLT-4 leukemia
[27] = test system: NCI-H226 lung
[28] = test system: NCI-H23 lung
[29] = test system: NCI-H460 lung
[30] = test system: NCI-H522 lung
[31] = test system: NCI/ADR-RES ovarian
[32] = test system: OVCAR-3 ovarian
[33] = test system: OVCAR-4 ovarian
[34] = test system: OVCAR-5 ovarian
[35] = test system: OVCAR-8 ovarian
[36] = test system: PC-3 prostate
[37] = test system: RPMI-8226 leukemia
[38] = test system: RXF 393 renal
[39] = test system: SF-268 CNS
[40] = test system: SF-295 CNS
[41] = test system: SF-539 CNS
[42] = test system: SK-MEL-2 melanoma
[43] = test system: SK-MEL-28 melanoma
[44] = test system: SK-MEL-5 melanoma
[45] = test system: SK-OV-3 ovarian
[46] = test system: SN12C renal
[47] = test system: SNB-19 CNS
[48] = test system: SNB-75 CNS
[49] = test system: SR leukemia
[50] = test system: SW-620 colon
[51] = test system: T-47D breast
[52] = test system: U251 CNS
[53] = test system: UACC-257 melanoma
[54] = test system: UACC-62 melanoma
[55] = test system: UO-31 renal
[56] = test system: CAKI-1 renal
[57] = test system: EKVX NSCLC
[58] = test system: TK-10 renal

COc1ccc(-c2nc(Nc3ccc(F)cc3)nc(Nc3ccc4c(c3)nc(C)n4Cc3ccccc3)n2)cc1
GI50 [1]: 2.68 µM
TGI [1]: 11.2 µM
GI50 [2]: 2.39 µM
TGI [2]: 62.4 µM
GI50 [3]: 3.59 µM
TGI [3]: > 100 µM
GI50 [4]: 3.13 µM
TGI [4]: > 100 µM
GI50 [5]: 3.52 µM
TGI [5]: > 100 µM
GI50 [6]: 2.88 µM
TGI [6]: > 100 µM
GI50 [7]: 2.28 µM
TGI [7]: 5.95 µM
GI50 [8]: 7.59 µM
TGI [8]: > 100 µM
GI50 [9]: 5.85 µM
TGI [9]: > 100 µM
GI50 [10]: 3 µM
TGI [10]: > 100 µM
GI50 [11]: 2.95 µM
TGI [11]: > 100 µM
GI50 [12]: 4.54 µM
TGI [12]: > 100 µM
GI50 [13]: 8.47 µM
TGI [13]: > 100 µM
GI50 [14]: 2.59 µM
TGI [14]: > 100 µM
GI50 [15]: 6.63 µM
TGI [15]: > 100 µM
GI50 [16]: 1.76 µM
TGI [16]: 3.56 µM
GI50 [17]: 5.41 µM
TGI [17]: > 100 µM
GI50 [18]: 3.44 µM
TGI [18]: > 100 µM
GI50 [19]: 3.55 µM
TGI [19]: 33.8 µM
GI50 [20]: 3.98 µM
TGI [20]: 57.6 µM
GI50 [21]: 3.72 µM
TGI [21]: > 100 µM
GI50 [22]: 4.32 µM
TGI [22]: > 100 µM
GI50 [23]: 3.14 µM
TGI [23]: > 100 µM
GI50 [24]: 3.64 µM
TGI [24]: 18.9 µM
GI50 [25]: 3.27 µM
TGI [25]: > 100 µM
GI50 [26]: 3.44 µM
TGI [26]: > 100 µM
GI50 [27]: 5.34 µM
TGI [27]: > 100 µM
GI50 [28]: 6.54 µM
TGI [28]: > 100 µM
GI50 [29]: 3.35 µM
TGI [29]: 20.9 µM
GI50 [30]: 5.92 µM
TGI [30]: > 100 µM
GI50 [31]: 3.23 µM
TGI [31]: 12.2 µM
GI50 [32]: 6.54 µM
TGI [32]: > 100 µM
GI50 [33]: 1.59 µM
TGI [33]: > 100 µM
GI50 [34]: 3.26 µM
TGI [34]: 68.9 µM
GI50 [35]: 3.45 µM
TGI [35]: > 100 µM
GI50 [36]: 3.11 µM
TGI [36]: > 100 µM
GI50 [37]: 2.48 µM
TGI [37]: 88.1 µM
GI50 [38]: 2.53 µM
TGI [38]: 9.54 µM
GI50 [39]: 7.25 µM
TGI [39]: > 100 µM
GI50 [40]: 3.73 µM
TGI [40]: > 100 µM
GI50 [41]: 4.99 µM
TGI [41]: > 100 µM
GI50 [42]: 3.47 µM
TGI [42]: 11.9 µM
GI50 [43]: 4.14 µM
TGI [43]: > 100 µM
GI50 [44]: 3.2 µM
TGI [44]: 24.2 µM
GI50 [45]: 10.1 µM
TGI [45]: > 100 µM
GI50 [46]: 6.18 µM
TGI [46]: > 100 µM
GI50 [47]: 6.9 µM
TGI [47]: > 100 µM
GI50 [48]: 2.83 µM
TGI [48]: > 100 µM
GI50 [49]: 3.49 µM
TGI [49]: 47.8 µM
GI50 [50]: 5.25 µM
TGI [50]: > 100 µM
GI50 [51]: 2.42 µM
TGI [51]: 44.2 µM
GI50 [52]: 4.19 µM
TGI [52]: > 100 µM
GI50 [53]: 7.17 µM
TGI [53]: > 100 µM
GI50 [54]: 6.66 µM
TGI [54]: > 100 µM
GI50 [55]: 3.53 µM
TGI [55]: > 100 µM

Cc1ccc(OC2CC(n3cnc4c(=O)[nH]c(Br)nc43)OC2Oc2ccc(C)cc2)cc1 (stereo unspecified)
TGI [1]: 74.9 µM
TGI [2]: > 100 µM
TGI [3]: 69.7 µM
TGI [4]: 38 µM
TGI [5]: 67.5 µM
TGI [56]: 75.7 µM
TGI [6]: 53.7 µM
TGI [7]: 82.8 µM
TGI [8]: 53.9 µM
TGI [57]: 62.8 µM
TGI [9]: 47.3 µM
TGI [10]: > 100 µM
TGI [11]: 91.6 µM
TGI [12]: 59.2 µM
TGI [13]: 49.5 µM
TGI [14]: 45.9 µM
TGI [15]: 66.1 µM
TGI [16]: 83.4 µM
TGI [17]: 66.9 µM
TGI [18]: 51.1 µM
TGI [19]: > 100 µM
TGI [20]: 72 µM
TGI [21]: 62.1 µM
TGI [22]: 61.5 µM
TGI [23]: > 100 µM
TGI [24]: 46.9 µM
TGI [25]: 57.1 µM
TGI [26]: 50.5 µM
TGI [27]: > 100 µM
TGI [28]: 70.3 µM
TGI [29]: 43.2 µM
TGI [30]: 59.8 µM
TGI [31]: 69.2 µM
TGI [32]: 39.9 µM
TGI [33]: > 100 µM
TGI [34]: 48.2 µM
TGI [35]: 66.5 µM
TGI [36]: 49.8 µM
TGI [37]: 87.9 µM
TGI [38]: 60.5 µM
TGI [39]: 58.1 µM
TGI [40]: 61.9 µM
TGI [41]: 50.1 µM
TGI [42]: 75.8 µM
TGI [44]: 58.7 µM
TGI [45]: > 100 µM
TGI [46]: 56.5 µM
TGI [47]: 49 µM
TGI [49]: 51.1 µM
TGI [50]: > 100 µM
TGI [51]: 62.1 µM
TGI [58]: 49.8 µM
TGI [52]: 79.9 µM
TGI [53]: 62.2 µM
TGI [54]: 53.7 µM
TGI [55]: 38.4 µM
